Laboratory results taken from US20110039825A1, “LIGANDS OF ALPHA-ADRENOCEPTORS, DOPAMINE, HISTAMINE, IMIDAZOLINE AND SEROTONIN RECEPTORS AND THEIR USE” (Alla Chem, LLC, priority 2007, published 2011).
Where two headings read alike, the source gives them in different places.

Columns and labels:
human D2S receptor = molecular target: T1, human D2S receptor (Homo sapiens, UniProt P14416); experiment: radioligand binding to dopamine receptor D2S ([3H] Spiperone); settings: for Dopamine receptor D2S, % inhibition: 10 μM ligand
T1 construct: expressed in transfected cells; host or cells: CHO
Text: 7-C. […] For this purpose sDNA of human D2S receptor is expressed in CHO cells, as described in [Hayes G, Biden T J, Selbie L A and Shine J, Structural subtypes of the dopamine D2 receptor are functionally distinct. […] Mol. Endocrinol. […] Mol. Endocrinol. […] Spiperone is used as positive control.

human α2A receptor = molecular target: T2, human α2A receptor (Homo sapiens, UniProt P08913); experiment: radioligand binding to adrenergic receptor α2A ([3H] MK-912)
T2 construct: expressed in transfected cells; host or cells: Sf9
T2 sequence (P08913 1-465): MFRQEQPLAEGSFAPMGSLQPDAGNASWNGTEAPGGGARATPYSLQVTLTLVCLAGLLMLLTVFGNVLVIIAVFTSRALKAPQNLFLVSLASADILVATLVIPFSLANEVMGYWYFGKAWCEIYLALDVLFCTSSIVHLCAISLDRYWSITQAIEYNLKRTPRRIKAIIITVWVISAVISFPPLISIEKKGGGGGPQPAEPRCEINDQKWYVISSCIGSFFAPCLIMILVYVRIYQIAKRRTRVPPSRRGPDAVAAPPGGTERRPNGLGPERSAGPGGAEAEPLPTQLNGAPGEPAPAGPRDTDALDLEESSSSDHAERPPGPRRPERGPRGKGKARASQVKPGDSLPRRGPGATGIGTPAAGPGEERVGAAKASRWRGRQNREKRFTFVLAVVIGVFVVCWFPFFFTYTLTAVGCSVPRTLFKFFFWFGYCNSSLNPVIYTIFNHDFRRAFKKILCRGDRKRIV
Text: J Pharmacol ExpTher. […] Yohimbine is used as positive control.

human D3 receptor = molecular target: T3, human D3 receptor (Homo sapiens, UniProt P35462); experiment: radioligand binding to dopamine receptor D3 ([3H] Spiperone); settings: for Dopamine receptor D3, % inhibition: 10 μM ligand
T3 construct: expressed in transfected cells; host or cells: CHO
Text: For this purpose sDNA of human D3 receptor is expressed in CHO cells, as it was described in [Sokoloff P, Giros B, Martres M-P, Bouthenet M-L and Schwartz J-C. Molecular cloning and characterization of novel dopamine receptor (D3) as target for neuroleptics. Nature. […] Molecular cloning and characterization of novel dopamine receptor (D3) as target for neuroleptics. Nature. […] Spiperone is used as positive control.

human D1 receptor = molecular target: T4, human D1 receptor (Homo sapiens, UniProt P21728); experiment: radioligand binding to dopamine receptor D1 ([3H] SCH-23390); settings: for Dopamine receptor D1, % inhibition: 10 μM ligand
T4 construct: expressed in transfected cells; host or cells: CHO
Text: For this purpose sDNA of human D1 receptor is expressed in CHO cells, as it was described in [Dearry A, Gingrich J A, Falardeau P, Fremeau R T Jr, Bates M D and Caron M G. Molecular cloning and expression of the gene for a human D1 dopamine receptor. Nature. […] Nature.

imidazoline receptor I2 = experiment: radioligand binding to imidazoline receptor I2 ([3H] Idazoxan); design: species or system rat
Method: Determination of investigated compounds' binding to imidazoline I2 receptor is carried out according to the method described in [Brown C M, MacKinnon A C, McGrath J C, Spedding M and Kilpatrick A T, a2-Adrenoceptor subtypes and imidazoline-like binding in the rat brain. Br J. Pharmacol. 99:803-809, 1990]. […] Idazoxan is used as positive control.

[1] = molecular target: T5, recombinant human 5-HT6 receptor (Homo sapiens, UniProt P50406); experiment: radioligand binding to serotonin receptor 5-HT6 ([3H] Lysergic acid diethylamide); settings: for inhibition at 1 µM: read-out: 5-HT6 % inhibition
T5 construct: expressed in transfected cells; host or cells: HeLa
Text: Mol. Pharmacol. 43:320-327, 1993]. […] Methiothepin is used as positive control.

adrenergic receptor α1A = molecular target: T6, adrenergic receptor α1A (Rattus norvegicus, UniProt P43140); experiment: radioligand binding to adrenergic receptor α1A ([3H] Prazosin)
T6 construct: membrane species from rat submaxillary glands (rat of Wistar breed) are prepared; from tissue; host or cells: rat (Wistar) submaxillary gland membranes
T6 sequence (P43140 1-466): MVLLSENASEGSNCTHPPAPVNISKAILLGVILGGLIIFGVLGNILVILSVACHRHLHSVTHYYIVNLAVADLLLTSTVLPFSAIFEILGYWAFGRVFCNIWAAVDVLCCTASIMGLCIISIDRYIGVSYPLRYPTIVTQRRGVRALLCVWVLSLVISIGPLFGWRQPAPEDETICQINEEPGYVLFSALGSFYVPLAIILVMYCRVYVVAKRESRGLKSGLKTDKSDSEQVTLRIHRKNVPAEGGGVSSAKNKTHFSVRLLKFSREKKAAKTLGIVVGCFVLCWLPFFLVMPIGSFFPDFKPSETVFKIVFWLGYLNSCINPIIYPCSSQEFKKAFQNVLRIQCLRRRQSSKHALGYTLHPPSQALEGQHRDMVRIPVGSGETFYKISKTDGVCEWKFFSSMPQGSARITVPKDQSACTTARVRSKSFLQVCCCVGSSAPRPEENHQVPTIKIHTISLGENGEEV
Method: Determination of investigated compounds' binding to α1A receptor was carried out according to the method described in [Michel A D, Loury D N and Whiting R l. Identification of a single α1A-adrenoceptor corresponding to the α1A-subtype in rat submaxillary gland. Br J. Pharmacol. 98:883-889, 1989]. […] Prazosin is used as positive control.

T5 sequence (P50406 whole entry): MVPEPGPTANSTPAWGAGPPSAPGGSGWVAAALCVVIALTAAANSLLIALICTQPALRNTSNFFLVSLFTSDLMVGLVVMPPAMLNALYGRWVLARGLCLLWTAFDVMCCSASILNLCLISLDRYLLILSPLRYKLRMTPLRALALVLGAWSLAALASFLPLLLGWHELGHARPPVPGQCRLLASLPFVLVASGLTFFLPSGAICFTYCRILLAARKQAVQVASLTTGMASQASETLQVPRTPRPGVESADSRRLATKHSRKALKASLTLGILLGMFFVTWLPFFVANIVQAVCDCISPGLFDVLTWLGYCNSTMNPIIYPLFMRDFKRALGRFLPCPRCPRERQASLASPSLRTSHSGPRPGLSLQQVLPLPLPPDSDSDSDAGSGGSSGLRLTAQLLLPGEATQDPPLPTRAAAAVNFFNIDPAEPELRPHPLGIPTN
T1 sequence (P14416 1-414 isoform P14416-2): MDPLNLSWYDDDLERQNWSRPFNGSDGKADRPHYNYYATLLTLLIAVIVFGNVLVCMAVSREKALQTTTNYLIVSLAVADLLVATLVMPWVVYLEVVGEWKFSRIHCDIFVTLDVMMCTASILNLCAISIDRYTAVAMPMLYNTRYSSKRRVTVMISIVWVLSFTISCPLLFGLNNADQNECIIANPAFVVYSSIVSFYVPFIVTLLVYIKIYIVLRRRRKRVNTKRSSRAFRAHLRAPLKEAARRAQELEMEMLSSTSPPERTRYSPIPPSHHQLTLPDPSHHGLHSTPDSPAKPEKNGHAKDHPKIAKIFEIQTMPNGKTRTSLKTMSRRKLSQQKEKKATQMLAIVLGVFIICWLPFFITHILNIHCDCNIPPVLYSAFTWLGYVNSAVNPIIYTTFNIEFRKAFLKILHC
T4 sequence (P21728 whole entry): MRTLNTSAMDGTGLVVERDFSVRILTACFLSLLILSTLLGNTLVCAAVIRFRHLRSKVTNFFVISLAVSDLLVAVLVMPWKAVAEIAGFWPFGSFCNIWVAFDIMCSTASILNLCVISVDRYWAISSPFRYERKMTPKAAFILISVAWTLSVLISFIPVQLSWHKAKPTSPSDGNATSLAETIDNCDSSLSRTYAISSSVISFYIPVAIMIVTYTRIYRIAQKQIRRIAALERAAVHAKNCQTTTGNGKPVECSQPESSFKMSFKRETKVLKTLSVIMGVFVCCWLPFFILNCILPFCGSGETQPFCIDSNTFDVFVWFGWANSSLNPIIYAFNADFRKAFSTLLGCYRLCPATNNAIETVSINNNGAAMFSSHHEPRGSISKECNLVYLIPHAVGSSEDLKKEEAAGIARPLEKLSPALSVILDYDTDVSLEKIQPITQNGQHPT
T3 sequence (P35462 whole entry): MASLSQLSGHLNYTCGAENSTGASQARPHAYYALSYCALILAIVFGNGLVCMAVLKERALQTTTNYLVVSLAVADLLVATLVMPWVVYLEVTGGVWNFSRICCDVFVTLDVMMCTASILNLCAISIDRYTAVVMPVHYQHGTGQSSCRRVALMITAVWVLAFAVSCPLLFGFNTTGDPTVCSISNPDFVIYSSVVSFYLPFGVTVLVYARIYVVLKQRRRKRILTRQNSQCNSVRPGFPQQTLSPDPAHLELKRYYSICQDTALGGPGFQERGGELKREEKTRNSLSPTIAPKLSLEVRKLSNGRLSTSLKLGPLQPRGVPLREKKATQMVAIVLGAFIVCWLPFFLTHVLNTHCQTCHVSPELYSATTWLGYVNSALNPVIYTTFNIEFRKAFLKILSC

Row | Structure (SMILES) | Dopamine receptor D2S, % inhibition (human D2S receptor) | α-Adrenoceptor α2A, % inhibition (human α2A receptor; 10 μM ligand) | Dopamine receptor D3, % inhibition (human D3 receptor) | Dopamine receptor D1, % inhibition (human D1 receptor) | imidazoline I2 receptor % inhibition (imidazoline receptor I2; 10 μM ligand) | IC50 [1] | Ki [1] | nH 5-HT6 [1] | IC50 (adrenergic receptor α1A) | Ki (adrenergic receptor α1A) | IC50 (human α2A receptor) | Ki (human α2A receptor) | also measured
1 | Cc1ccc2c(c1)[C@@H]1CN(C)CCC[C@@H]1N2CCc1ccc(C)nc1.Cl.Cl.Cl (relative stereo) [1.6.1(2)•3HCl] | 31% | 82% | 41% | 55% | 80% |  |  |  |  |  |  |  | 
2 | Cc1ccc2c(c1)c1c(n2CCc2ccccn2)CCN(C)C1.Cl.Cl [1.1.2(2-3)•2HCl] |  |  |  |  | 88% | 109 nM | 50.5 nM | 0.744 | 450 nM | 182 nM | 128 nM | 47.9 nM | inhibition at 1 µM ([1]; ligand concentration 1 μM): 97%
3 | Cc1ccc2c(c1)[C@H]1CN(C)CCC[C@@H]1N2CCc1cccnc1 [1.6.2(10)•3HCl] | 33% | 92% | 25% | 88% |  |  |  |  |  |  |  |  | inhibition at 1 µM [1]: 93%; α-Adrenoceptor α1A, % inhibition (adrenergic receptor α1A; 10 μM ligand): 86%
4 | CN1CCc2c(c3ccccc3n2Cc2ccccc2)C1 [1.9(1)•½NDSA, bis-(5-benzyl-2-methyl-2,3,4,5-tetrahydro-1H-pyrido[4,3-b]indole) naphtalene-1,5-disulfonate] | 51% |  | 65% | 77% |  | 103 nM | 47.6 nM | 1.07 | 510 nM | 206 nM | 123 nM | 46.1 nM | IC50 (human D2S receptor): 3000 nM; Ki (human D2S receptor): 1080 nM; nH D2S (human D2S receptor): 0.879; 5-HT6 % inhibition ([1]; 0.3 μM ligand): 78%; nH α1A (adrenergic receptor α1A): 1.08; α-Adrenoceptor α1A, % inhibition (adrenergic receptor α1A; 1 μM ligand): 67(1 μM) %; nH α2A (human α2A receptor): 1.13; α-Adrenoceptor α2A, % inhibition (human α2A receptor; 0.3 μM ligand): 73(0.3 μM) %; IC50 (human D3 receptor): 1360 nM; Ki (human D3 receptor): 462 nM; nH D3 (human D3 receptor): 1.04; nH D1 (human D1 receptor): 1.38; imidazoline I2 receptor % inhibition (imidazoline receptor I2; 0.3 μM ligand): 87 (0.3 μM) %
